Legend:
MDA-MB-231 = assay: Growth inhibition of human MDA-MB-231 cells after 48 hrs by sulforhodamine B assay; assay type: functional; details: MDA-MB-231, 48 h
SW-620 = assay: Growth inhibition of human SW620 cells after 48 hrs by sulforhodamine B assay; assay type: functional; details: SW-620, 48 h
HL-60(TB) = assay: Growth inhibition of human HL-60(TB) cells after 48 hrs by sulforhodamine B assay; assay type: functional; details: HL-60, 48 h
RPMI-8226 = assay: Growth inhibition of human RPMI8226 cells after 48 hrs by sulforhodamine B assay; assay type: functional; details: RPMI-8226, 48 h
K562 = assay: Growth inhibition of human K562 cells after 48 hrs by sulforhodamine B assay; assay type: functional; details: K562, 48 h
MCF7 = assay: Growth inhibition of human MCF7 cells after 48 hrs by sulforhodamine B assay; assay type: functional; details: MCF7, 48 h
HOP-62 = assay: Growth inhibition of human HOP62 cells after 48 hrs by sulforhodamine B assay; assay type: functional; details: HOP-62, 48 h
KM12 = assay: Growth inhibition of human KM12 cells after 48 hrs by sulforhodamine B assay; assay type: functional; details: KM12, 48 h
[1] = Growth inhibition of human NCI-ADR-RES cells after 48 hrs by sulforhodamine B assay; assay type: functional
ACHN = assay: Growth inhibition of human ACHN cells after 48 hrs by sulforhodamine B assay; assay type: functional
BT-549 = assay: Growth inhibition of human BT549 cells after 48 hrs by sulforhodamine B assay; assay type: functional; details: BT-549, 48 h
OVCAR-8 = assay: Growth inhibition of human OVCAR8 cells after 48 hrs by sulforhodamine B assay; assay type: functional; details: OVCAR-8, 48 h
CAKI-1 = assay: Growth inhibition of human CAKI-1 cells after 48 hrs by sulforhodamine B assay; assay type: functional; details: CAKI-1, 48 h
NCI-H460 = assay: Growth inhibition of human NCI-H460 cells after 48 hrs by sulforhodamine B assay; assay type: functional; details: NCI-H460, 48 h
DU-145 = assay: Growth inhibition of human DU145 cells after 48 hrs by sulforhodamine B assay; assay type: functional; details: DU-145, 48 h
HT-29 = assay: Growth inhibition of human HT-29 cells after 48 hrs by sulforhodamine B assay; assay type: functional; details: HT-29, 48 h
SNB-75 = assay: Growth inhibition of human SNB75 cells after 48 hrs by sulforhodamine B assay; assay type: functional; details: SNB-75, 48 h
OVCAR-4 = assay: Growth inhibition of human OVCAR4 cells after 48 hrs by sulforhodamine B assay; assay type: functional; details: OVCAR-4, 48 h
SF-268 = assay: Growth inhibition of human SF268 cells after 48 hrs by sulforhodamine B assay; assay type: functional; details: SF-268, 48 h
UACC-62 = assay: Growth inhibition of human UACC62 cells after 48 hrs by sulforhodamine B assay; assay type: functional; details: UACC-62, 48 h
CCRF-CEM = assay: Growth inhibition of human CCRF-CEM cells after 48 hrs by sulforhodamine B assay; assay type: functional
A549 = assay: Growth inhibition of human A549/ATCC cells after 48 hrs by sulforhodamine B assay; assay type: functional; details: A549, 48 h
TK-10 = assay: Growth inhibition of human TK10 cells after 48 hrs by sulforhodamine B assay; assay type: functional; details: TK-10, 48 h
UACC-257 = assay: Growth inhibition of human UACC257 cells after 48 hrs by sulforhodamine B assay; assay type: functional; details: UACC-257, 48 h
PC-3 = assay: Growth inhibition of human PC3 cells after 48 hrs by sulforhodamine B assay; assay type: functional; details: PC-3, 48 h
SR = assay: Growth inhibition of human SR cells after 48 hrs by sulforhodamine B assay; assay type: functional
SK-MEL-5 = assay: Growth inhibition of human SK-MEL-5 cells after 48 hrs by sulforhodamine B assay; assay type: functional; details: SK-MEL-5, 48 h
SK-MEL-28 = assay: Growth inhibition of human SK-MEL-28 cells after 48 hrs by sulforhodamine B assay; assay type: functional; details: SK-MEL-28, 48 h
MDA-MB-435 = assay: Growth inhibition of human MDA-MB-435 cells after 48 hrs by sulforhodamine B assay; assay type: functional; details: MDA-MB-435, 48 h
SF-539 = assay: Growth inhibition of human SF539 cells after 48 hrs by sulforhodamine B assay; assay type: functional; details: SF-539, 48 h
OVCAR-3 = assay: Growth inhibition of human OVCAR3 cells after 48 hrs by sulforhodamine B assay; assay type: functional; details: OVCAR-3, 48 h
HOP-92 = assay: Growth inhibition of human HOP92 cells after 48 hrs by sulforhodamine B assay; assay type: functional; details: HOP-92, 48 h
SF-295 = assay: Growth inhibition of human SF295 cells after 48 hrs by sulforhodamine B assay; assay type: functional; details: SF-295, 48 h
HCT-15 = assay: Growth inhibition of human HCT15 cells after 48 hrs by sulforhodamine B assay; assay type: functional; details: HCT-15, 48 h
T47D = assay: Growth inhibition of human T47D cells after 48 hrs by sulforhodamine B assay; assay type: functional
NCI-H23 = assay: Growth inhibition of human NCI-H23 cells after 48 hrs by sulforhodamine B assay; assay type: functional; details: NCI-H23, 48 h
Ovis aries = species: Ovis aries; assay: Inhibition of sheep brain tubulin polymerization at 100 uM using DAPI by fluorimetry
OVCAR-5 = assay: Growth inhibition of human OVCAR5 cells after 48 hrs by sulforhodamine B assay; assay type: functional; details: OVCAR-5, 48 h
MDA-MB-468 = assay: Growth inhibition of human MDA-MB-468 cells after 48 hrs by sulforhodamine B assay; assay type: functional; details: MDA-MB-468, 48 h
LOX IMVI = assay: Growth inhibition of human LOXIMVI cells after 48 hrs by sulforhodamine B assay; assay type: functional
MOLT-4 = assay: Growth inhibition of human MOLT4 cells after 48 hrs by sulforhodamine B assay; assay type: functional; details: MOLT-4, 48 h
IGROV-1 = assay: Growth inhibition of human IGROV1 cells after 48 hrs by sulforhodamine B assay; assay type: functional; details: IGROV-1, 48 h
HCT-116 = assay: Growth inhibition of human HCT116 cells after 48 hrs by sulforhodamine B assay; assay type: functional; details: HCT-116, 48 h
UO-31 = assay: Growth inhibition of human UO31 cells after 48 hrs by sulforhodamine B assay; assay type: functional; details: UO-31, 48 h
[2] = Growth inhibition of human Hs 578T cells after 48 hrs by sulforhodamine B assay; assay type: functional
RXF 393 = assay: Growth inhibition of human RXF393 cells after 48 hrs by sulforhodamine B assay; assay type: functional; details: RXF 393, 48 h
SN12C = assay: Growth inhibition of human SN12C cells after 48 hrs by sulforhodamine B assay; assay type: functional
COLO 205 = assay: Growth inhibition of human COLO205 cells after 48 hrs by sulforhodamine B assay; assay type: functional; details: COLO 205, 48 h
SK-MEL-2 = assay: Growth inhibition of human SK-MEL-2 cells after 48 hrs by sulforhodamine B assay; assay type: functional; details: SK-MEL-2, 48 h
SK-OV-3 = assay: Growth inhibition of human SKOV3 cells after 48 hrs by sulforhodamine B assay; assay type: functional; details: SK-OV-3, 48 h
Malme-3M = assay: Growth inhibition of human MALME-3M cells after 48 hrs by sulforhodamine B assay; assay type: functional
786-0 = assay: Growth inhibition of human 786-0 cells after 48 hrs by sulforhodamine B assay; assay type: functional; details: 786-0, 48 h
NCI-H522 = assay: Growth inhibition of human NCI-H522 cells after 48 hrs by sulforhodamine B assay; assay type: functional; details: NCI-H522, 48 h
A498 = assay: Growth inhibition of human A498 cells after 48 hrs by sulforhodamine B assay; assay type: functional; details: A498, 48 h
[3] = Growth inhibition of human HCC2998 cells after 48 hrs by sulforhodamine B assay; assay type: functional; details: HCC 2998, 48 h
M14 = assay: Growth inhibition of human M14 cells after 48 hrs by sulforhodamine B assay; assay type: functional; details: M14, 48 h

For `CCOc1ccc(C(=O)N2c3ccccc3Sc3ccccc32)cc1Cl`, which GI50 (MDA-MB-231) is on record?
The GI50 was 531 nM.

What about the GI50 (SW-620) of the same compound?
Its GI50 is 349 nM.

What about the GI50 (HL-60(TB)) of the same compound?
Its GI50 is 315 nM.

What about the GI50 (RPMI-8226) of the same compound?
Its GI50 is 424 nM.

What about the GI50 (K562) of the same compound?
Its GI50 is 277 nM.

And the GI50 (MCF7)?
Its GI50 is 419 nM.

And the GI50 (HOP-62)?
Its GI50 is 512 nM.

What about the GI50 (KM12) of the same compound?
The GI50 was 426 nM.

And the GI50 [1]?
Its GI50 is 376 nM.

What about the GI50 (ACHN) of the same compound?
Its GI50 is 447 nM.

And the GI50 (BT-549)?
The GI50 was 613 nM.

What about the GI50 (OVCAR-8) of the same compound?
The GI50 was 596 nM.

What about the GI50 (CAKI-1) of the same compound?
Its GI50 is 457 nM.

And the GI50 (NCI-H460)?
Its GI50 is 368 nM.

What about the GI50 (DU-145) of the same compound?
Its GI50 is 476 nM.

What about the GI50 (HT-29) of the same compound?
Its GI50 is 320 nM.

And the GI50 (SNB-75)?
Its GI50 is 283 nM.

What about the GI50 (OVCAR-4) of the same compound?
Its GI50 is 3750 nM.

What about the GI50 (SF-268) of the same compound?
Its GI50 is 1760 nM.

What about the GI50 (UACC-62) of the same compound?
Its GI50 is 451 nM.

What about the GI50 (CCRF-CEM) of the same compound?
Its GI50 is 361 nM.

What about the GI50 (A549) of the same compound?
The GI50 was 620 nM.

What about the GI50 (TK-10) of the same compound?
Its GI50 is 857 nM.

And the GI50 (UACC-257)?
The GI50 was 564 nM.

What about the GI50 (PC-3) of the same compound?
The GI50 was 390 nM.

What about the GI50 (SR) of the same compound?
The GI50 was 142 nM.

What about the GI50 (SK-MEL-5) of the same compound?
Its GI50 is 333 nM.

And the GI50 (SK-MEL-28)?
The GI50 was 817 nM.

What about the GI50 (MDA-MB-435) of the same compound?
The GI50 was 95 nM.

And the GI50 (SF-539)?
The GI50 was 239 nM.

What about the GI50 (OVCAR-3) of the same compound?
Its GI50 is 231 nM.

What about the GI50 (HOP-92) of the same compound?
The GI50 was 272 nM.

What about the GI50 (SF-295) of the same compound?
Its GI50 is 254 nM.

What about the GI50 (HCT-15) of the same compound?
Its GI50 is 373 nM.

And the GI50 (T47D)?
Its GI50 is 466 nM.

And the GI50 (NCI-H23)?
The GI50 was 999 nM.

And the inhibition (Ovis aries)?
Its inhibition is 48%.

What about the GI50 (OVCAR-5) of the same compound?
The GI50 was 527 nM.

What about the GI50 (MDA-MB-468) of the same compound?
The GI50 was 257 nM.

What about the GI50 (LOX IMVI) of the same compound?
The GI50 was 750 nM.

What about the GI50 (MOLT-4) of the same compound?
The GI50 was 408 nM.

What about the GI50 (IGROV-1) of the same compound?
The GI50 was 1020 nM.

What about the GI50 (HCT-116) of the same compound?
The GI50 was 457 nM.

What about the GI50 (UO-31) of the same compound?
The GI50 was 520 nM.

What about the GI50 [2] of the same compound?
The GI50 was 573 nM.

And the GI50 (RXF 393)?
Its GI50 is 236 nM.

And the GI50 (SN12C)?
The GI50 was 777 nM.

What about the GI50 (COLO 205) of the same compound?
Its GI50 is 354 nM.

What about the GI50 (SK-MEL-2) of the same compound?
Its GI50 is 395 nM.

And the GI50 (SK-OV-3)?
The GI50 was 623 nM.

And the GI50 (Malme-3M)?
Its GI50 is 446 nM.

And the GI50 (786-0)?
Its GI50 is 481 nM.

What about the GI50 (NCI-H522) of the same compound?
Its GI50 is 221 nM.

What about the GI50 (A498) of the same compound?
Its GI50 is 210 nM.

What about the GI50 [3] of the same compound?
Its GI50 is 2700 nM.

And the GI50 (M14)?
The GI50 was 373 nM.

From ChEMBL document CHEMBL2331144, “Synthesis and anticancer activity of analogues of phenstatin, with a phenothiazine A-ring, as a new class of microtubule-targeting agents” (Bioorg Med Chem Lett, 2013)
